Structure (SMILES) | logP
CC1CCC2CC(=O)N(CC(=O)O)C3OC4(C)CCC1C23OO4 (stereo not given) | 1.75
CC1CCC2CC(=O)N(C)C3OC4(C)CCC1C23OO4 (stereo not given) | 2.76
CCCN1C(=O)CC2CCC(C)C3CCC4(C)OOC23C1O4 (stereo not given) | 3.4
CCCCCN1C(=O)CC2CCC(C)C3CCC4(C)OOC23C1O4 (stereo not given) | 4.24
CC1CCC2CC(=O)N(Cc3ccc(Cl)cc3)C3OC4(C)CCC1C23OO4 (stereo not given) | 4.32
CC1CCC2CC(=O)N(CCCc3ccccc3)C3OC4(C)CCC1C23OO4 (stereo not given) | 4.39
CC(C)CCN1C(=O)CC2CCC(C)C3CCC4(C)OOC23C1O4 (stereo not given) | 4.16
CC(C)CN1C(=O)CC2CCC(C)C3CCC4(C)OOC23C1O4 (stereo not given) | 3.66
CO[C@H]1O[C@@H]2O[C@@]3(C)CC[C@H]4[C@H](C)CC[C@@H]([C@H]1C)[C@@]24OO3 | 3.53
C[C@@H]1CC[C@H]2[C@@H](C)C(=O)O[C@@H]3O[C@@]4(C)CC[C@@H]1[C@]32OO4 | 2.9

Reference: the OPERA property sets (Mansouri et al. 2018)
